Results reported in US9662327B2 (AGIOS PHARMACEUTICALS, INC, priority 2011, dated 2017).

Experiments:
IDH1 R132H = IDH1 R132H (Homo sapiens (Human), UniProt O75874, R132H); experiment: Assays for IDH1 R132H Inhibitors (NADPH/aKG, resazurin detection); type: biochemical; settings: IDH1 R132H enzyme, Table 3; read-out: R132H IC50
Summary of the method: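 Substrate mix held 8 uM NADPH plus 2 mM aKG; buffer was 20 mM Tris pH 7.5 with 150 mM NaCl, 10 mM MgCl2, 0.03% BSA. After 50 min room-temperature reaction, NADPH remaining was detected with 30 μM resazurin mix over 5 min.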

HT1080 cells = experiment: Cellular assay for IDH1m inhibitors: inhibition of 2-HG production in HT1080 cells (LC-MS); type: cell-based; settings: Homo sapiens, HT-1080, 48 hours
Summary of the method: (§1)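 HT1080 or U87MG cells seeded at 5000 cells/well overnight, then compound added (final DMSO 0.2%) and incubated 48 hours at 37 C. 2-HG in the medium quantified by LC-MS; viability checked by CellTiter-Glo luminescence at 72 hours post compound.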

U87R132H (U87MG) cells = experiment: Cellular assay for IDH1m inhibitors: inhibition of 2-HG production in U87MG (U87R132H) cells (LC-MS); type: cell-based; settings: Homo sapiens, U-87 MG, 48 hours
Summary of the method: as §1

Sequence of IDH1 R132H (O75874 whole entry R132H): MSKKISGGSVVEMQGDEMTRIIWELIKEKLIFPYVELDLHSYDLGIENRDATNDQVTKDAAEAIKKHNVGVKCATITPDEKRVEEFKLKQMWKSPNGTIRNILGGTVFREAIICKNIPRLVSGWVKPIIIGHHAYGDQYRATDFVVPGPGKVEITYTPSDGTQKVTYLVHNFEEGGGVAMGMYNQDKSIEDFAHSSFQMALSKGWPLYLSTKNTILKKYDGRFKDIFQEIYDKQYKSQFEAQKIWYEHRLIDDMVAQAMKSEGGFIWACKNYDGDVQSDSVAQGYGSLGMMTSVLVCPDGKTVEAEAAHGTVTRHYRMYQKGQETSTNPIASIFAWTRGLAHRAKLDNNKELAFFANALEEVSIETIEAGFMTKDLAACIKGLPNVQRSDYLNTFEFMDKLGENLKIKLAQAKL

Row | SMILES | IC50 (IDH1 R132H) | IC50 (HT1080 cells) | IC50 (U87R132H (U87MG) cells)
1 | COC(=O)N1CCc2c(C#N)c(N3CCN(C(=O)C4CC4)[C@H](C4CC4)C3)nc(C3CC3)c2C1 [Compound 494, (R)-methyl 5-cyano-6-(4-(cyclopropanecarbonyl)-3-cyclopropylpiperazin-1-yl)-8-cyclopropyl-3,4-dihydro-2,7-naphthyridine-2(1H)-carboxylate] | 500 to 1000 nM | < 500 nM | < 500 nM
2 | CC(C)[C@@H]1CN(c2nc(C3CC3)c3c(c2C#N)CC(C)(C)OC3)CCN1C(=O)[C@@H]1C[C@H]1CO [Compound 462, 8-Cyclopropyl-6-((R)-4-((1R,2R)-2-(hydroxymethyl)cyclopropanecarbonyl)-3-isopropylpiperazin-1-yl)-3,3-dimethyl-3,4-dihydro-1H-pyrano[3,4-c]pyridine-5-carbonitrile] | < 500 nM | 500 to 1000 nM | 500 to 1000 nM
